The numbers were not newly measured in patent publication US20140066461A1, “METHODS FOR DIAGNOSING AND TREATING SCHIZOPHRENIA” (priority 2012, published 2014), which cites them from elsewhere.

Data set [1] concerns protein tyrosine phosphatases.
For data set [2], the system named is rats.
Data set [3] relates to rats. The source holds these as a separate data set.
Data set [4] deals with patients with previously treated mantle cell lymphoma.
The next data set concerns the target BTK (Homo sapiens, UniProt Q06187).

Sequence of BTK (Q06187 whole entry): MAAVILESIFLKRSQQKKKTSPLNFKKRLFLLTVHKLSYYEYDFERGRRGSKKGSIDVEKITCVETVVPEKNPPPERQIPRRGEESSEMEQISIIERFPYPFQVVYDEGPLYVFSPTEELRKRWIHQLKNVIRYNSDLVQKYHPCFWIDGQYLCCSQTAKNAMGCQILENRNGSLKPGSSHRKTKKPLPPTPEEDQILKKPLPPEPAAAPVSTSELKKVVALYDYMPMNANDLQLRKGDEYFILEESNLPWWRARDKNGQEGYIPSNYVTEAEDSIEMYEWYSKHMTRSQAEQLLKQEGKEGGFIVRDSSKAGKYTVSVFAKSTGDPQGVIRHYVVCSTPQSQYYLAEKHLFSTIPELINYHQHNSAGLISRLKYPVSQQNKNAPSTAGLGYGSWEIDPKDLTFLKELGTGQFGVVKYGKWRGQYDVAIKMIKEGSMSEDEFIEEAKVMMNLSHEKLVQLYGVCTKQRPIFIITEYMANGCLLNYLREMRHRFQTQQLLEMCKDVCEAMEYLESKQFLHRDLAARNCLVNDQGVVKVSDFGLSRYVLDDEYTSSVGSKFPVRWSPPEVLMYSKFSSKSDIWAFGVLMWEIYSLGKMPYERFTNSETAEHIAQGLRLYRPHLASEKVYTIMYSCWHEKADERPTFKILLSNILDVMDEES

On to `Cc1ccc(S(=O)(=O)/C=C/C#N)cc1` [BAY-11-7082], for which, in data set [1], the “inhibition of protein tyrosine phosphatases” value was “act as inhibitors of protein tyrosine phosphatases”.
For the compound `O=C(CCCN1CCC(O)(c2ccc(Cl)cc2)CC1)c1ccc(F)cc1` [haloperidol], the “effects of amphetamine on attention” value with rats [2] is “reverse the effects of amphetamine on attention in rats”. The “picrotoxin effect on prepulse inhibition of startle” value in the data set with rats [3] is listed as “reduces this effect”.
As for `C=CC(=O)N1CCC[C@@H](n2nc(-c3ccc(Oc4ccccc4)cc3)c3c(N)ncnc32)C1` [PCI-32765], the complete responses result in data set [4] (560 mg/day) is given as “About 15%”. For the same compound, the “objective responses (partial plus complete)” value in data set [4] (560 mg/day, 51 patients evaluable for efficacy, early in the trial) is reported as 69%. The “effect on lymph nodes” value in data set [4] (MCL study, accompanied by large increases in lymphocyte counts in circulation) was “rapid shrinkage of lymph nodes swollen with malignant cells”. Also, the “patients exhibiting complete or partial responses” value in data set [4] (preliminary data, ongoing phase II trial) is “About two-thirds”. In addition, in data set [4] (small trials, mantle cell lymphoma), the toxicity result is recorded as “low toxicity”.
Turning to `Nc1ncnc2c1c(-c1ccc(Oc3ccccc3)cc1)nn2C1CCCC1` [PCI-29732], the “mode of BTK inhibition” value at BTK was “reversible BTK inhibitor”.
